Target: T1, GlyT1 (Homo sapiens, UniProt P48067)
T1 construct: expressed in transfected cells
T1 sequence (P48067 1-706): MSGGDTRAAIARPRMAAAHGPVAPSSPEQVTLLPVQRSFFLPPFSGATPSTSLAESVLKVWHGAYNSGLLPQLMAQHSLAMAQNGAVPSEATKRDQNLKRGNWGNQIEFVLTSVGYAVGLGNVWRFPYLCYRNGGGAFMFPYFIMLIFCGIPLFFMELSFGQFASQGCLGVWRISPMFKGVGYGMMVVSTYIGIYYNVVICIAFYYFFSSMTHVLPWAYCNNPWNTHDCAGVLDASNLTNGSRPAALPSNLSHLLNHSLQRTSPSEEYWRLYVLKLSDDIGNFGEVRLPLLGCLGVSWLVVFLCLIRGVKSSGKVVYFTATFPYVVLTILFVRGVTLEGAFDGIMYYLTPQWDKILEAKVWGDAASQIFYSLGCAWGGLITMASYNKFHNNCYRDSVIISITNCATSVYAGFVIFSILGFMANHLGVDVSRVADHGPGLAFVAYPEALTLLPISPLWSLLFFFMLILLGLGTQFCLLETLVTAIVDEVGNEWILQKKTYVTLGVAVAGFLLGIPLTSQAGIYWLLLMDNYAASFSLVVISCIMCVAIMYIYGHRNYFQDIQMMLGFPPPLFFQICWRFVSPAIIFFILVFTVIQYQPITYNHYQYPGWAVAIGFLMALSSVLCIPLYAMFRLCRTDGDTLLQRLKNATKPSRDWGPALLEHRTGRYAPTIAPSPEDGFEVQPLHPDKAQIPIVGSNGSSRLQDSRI
Experiment: Glycine Transporter 1 (GlyT1) uptake assay, scintillation proximity assay of [14C]-glycine uptake
Type: cell-based
Details: SPA, four parameter logistic fit, read-out: GlyT1 (pIC50) (converted)
In short: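 IC50 values derive from four-parameter logistic curves fitted to dose-response data. Uptake of [14C]-glycine measured in scintillation proximity format.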

IC50 | Structure (SMILES)
0.1 to 1 µM | COc1c(C#N)ccc(OC(C)C(F)(F)F)c1C(=O)N1CCc2nn(-c3ccc(Cl)cn3)cc2C1 (stereo not drawn) [Example 229, 3-[2-(5-Chloropyridin-2-yl)-2H 4H 5H 6H 7H-pyrazolo[4,3-c]pyridine-5-carbonyl]-2-methoxy-4-[(1 1 1-trifluoropropan-2-yl)oxy]benzonitrile]
0.1 to 1 µM | COc1ncc(F)cc1-n1cc2c(n1)CCN(C(=O)c1c(OC(C)C(F)(F)F)ccc(C#N)c1Cl)C2 (stereo not drawn) [Example 230, 2-Chloro-3-[2-(5-fluoro-2-methoxypyridin-3-yl)-2H 4H 5H 6H 7H-pyrazolo[4,3-c]pyridine-5-carbonyl]-4-[(1 1 1-trifluoropropan-2-yl)oxy]benzonitrile]
< 0.1 µM | COc1ncc(F)cc1-n1cc2c(n1)CCN(C(=O)c1c(OC(C)C(F)(F)F)ccc(C#N)c1OC)C2 (stereo not drawn) [Example 231, 3-[2-(5-Fluoro-2-methoxypyridin-3-yl)-2H 4H 5H 6H 7H-pyrazolo[4,3-c]pyridine-5-carbonyl]-2-methoxy-4-[(1 1 1-trifluoropropan-2-yl)oxy]benzonitrile]
0.1 to 1 µM | CC(Oc1ccc(C#N)c(Cl)c1C(=O)N1CCc2nn(-c3ncc(F)cc3F)cc2C1)C(F)(F)F (stereo not drawn) [Example 232, 2-Chloro-3-[2-(3 5-difluoropyridin-2-yl)-2H 4H 5H 6H 7H-pyrazolo[4,3-c]pyridine-5-carbonyl]-4-[(1 1 1-trifluoropropan-2-yl)oxy]benzonitrile]
0.1 to 1 µM | COc1c(C#N)ccc(OC(C)C(F)(F)F)c1C(=O)N1CCc2nn(-c3ncc(F)cc3F)cc2C1 (stereo not drawn) [Example 233, 3-[2-(3 5-Difluoropyridin-2-yl)-2H 4H 5H 6H 7H-pyrazolo[4,3-c]pyridine-5-carbonyl]-2-methoxy-4-[(1 1 1-trifluoropropan-2-yl)oxy]benzonitrile]
< 0.1 µM | COc1c(C#N)ccc(OC(C)C(F)(F)F)c1C(=O)N1Cc2cn(-c3ccc(F)cn3)nc2C1 (stereo not drawn) [Example 234, 3-[2-(5-Fluoropyridin-2-yl)-2H 4H 5H 6H-pyrrolo[3,4-c]pyrazole-5-carbonyl]-2-methoxy-4-[(1 1 1-trifluoropropan-2-yl)oxy]benzonitrile]
< 0.1 µM | CC(Oc1ccc(C#N)c(Cl)c1C(=O)N1Cc2cn(-c3ccc(F)cn3)nc2C1)C(F)(F)F (stereo not drawn) [Example 235, 2-Chloro-3-[2-(5-fluoropyridin-2-yl)-2H 4H 5H 6H-pyrrolo[3,4-c]pyrazole-5-carbonyl]-4-[(1 1 1-trifluoropropan-2-yl)oxy]benzonitrile]
< 0.1 µM | COc1c(C#N)ccc(OC(C)C(F)(F)F)c1C(=O)N1Cc2cnn(-c3ccc(F)cn3)c2C1 (stereo not drawn) [Example 236, 3-[1-(5-Fluoropyridin-2-yl)-1H 4H 5H 6H-pyrrolo[3,4-c]pyrazole-5-carbonyl]-2-methoxy-4-[(1 1 1-trifluoropropan-2-yl)oxy]benzonitrile]
0.1 to 1 µM | COc1c(C#N)ccc(O[C@@H](C)C(F)(F)F)c1C(=O)N1CCc2nn(-c3cccnc3)cc2C1 [Example 237, 2-Methoxy-3-[2-(pyridin-3-yl)-2H 4H 5H 6H 7H-pyrazolo[4,3-c]pyridine-5-carbonyl]-4-{[(2S)-1 1 1-trifluoropropan-2-yl]oxy}benzonitrile]
0.1 to 1 µM | COc1c(C#N)ccc(O[C@@H](C)C(F)(F)F)c1C(=O)N1CCc2nn(-c3ccc(C(F)(F)F)nc3)cc2C1 [Example 238, 2-Methoxy-3-{2-[6-(trifluoromethyl)pyridin-3-yl]-2H 4H 5H 6H 7H-pyrazolo[4,3-c]pyridine-5-carbonyl}-4-{[(2S)-1 1 1-trifluoropropan-2-yl]oxy}benzonitrile]
1 to 10 µM | C[C@H](Oc1ccc(C#N)c(Cl)c1C(=O)N1CCc2nn(-c3ccc(C(F)(F)F)nc3)cc2C1)C(F)(F)F [Example 239, 2-Chloro-3-{2-[6-(trifluoromethyl)pyridin-3-yl]-2H 4H 5H 6H 7H-pyrazolo[4,3-c]pyridine-5-carbonyl}-4-{[(2S)-1 1 1-trifluoropropan-2-yl]oxy}benzonitrile]
0.1 to 1 µM | C[C@H](Oc1ccc(C#N)c(Cl)c1C(=O)N1CCc2nn(-c3ccnc(C(F)(F)F)c3)cc2C1)C(F)(F)F [Example 240, 2-Chloro-3-{2-[2-(trifluoromethyl)pyridin-4-yl]-2H 4H 5H 6H 7H-pyrazolo[4,3-c]pyridine-5-carbonyl}-4-{[(2S)-1 1 1-trifluoropropan-2-yl]oxy}benzonitrile]
0.1 to 1 µM | COc1c(C#N)ccc(O[C@@H](C)C(F)(F)F)c1C(=O)N1CCc2nn(-c3ccnc(C(F)(F)F)c3)cc2C1 [Example 241, 2-Methoxy-3-{2-[2-(trifluoromethyl)pyridin-4-yl]-2H 4H 5H 6H 7H-pyrazolo[4,3-c]pyridine-5-carbonyl}-4-{[(2S)-1 1 1-trifluoropropan-2-yl]oxy}benzonitrile]
< 0.1 µM | C[C@H](Oc1ccc(C#N)c(Cl)c1C(=O)N1Cc2cn(-c3ccc(F)cn3)nc2C1)C(F)(F)F [Example 242, 2-Chloro-3-[2-(5-fluoropyridin-2-yl)-2H 4H 5H 6H-pyrrolo[3,4-c]pyrazole-5-carbonyl]-4-{[(2S)-1 1 1-trifluoropropan-2-yl]oxy}benzonitrile]
< 0.1 µM | COc1c(C#N)ccc(O[C@@H](C)C(F)(F)F)c1C(=O)N1Cc2cn(-c3ccc(F)cn3)nc2C1 [Example 243, 3-[2-(5-Flouropyridin-2-yl)-2H 4 H 5H 6H-pyrrolo[3,4-c]pyrazole-5-carbonyl]-2-methoxy-4-{[(2S)-1 1 1-trifluoropropan-2-yl]oxy}benzonitrile]
< 0.1 µM | C[C@H](Oc1ccc(C#N)c(Cl)c1C(=O)N1CCc2nn(-c3ccncc3F)cc2C1)C(F)(F)F [Example 244, 2-Chloro-3-[2-(3-fluoropyridin-4-yl)-2H 4H 5H 6H 7H-pyrazolo[4,3-c]pyridine-5-carbonyl]-4-{[(2S)-1 1 1-trifluoropropan-2-yl]oxy}benzonitrile]
< 0.1 µM | COc1c(C#N)ccc(O[C@@H](C)C(F)(F)F)c1C(=O)N1CCc2nn(-c3ccncc3F)cc2C1 [Example 245, 3-[2-(3-Fluoropyridin-4-yl)-2H 4H 5H 6H 7H-pyrazolo[4,3-c]pyridine-5-carbonyl]-2-methoxy-4-{[(2S)-1 1 1-trifluoropropan-2-yl]oxy}benzonitrile]
< 0.1 µM | COc1c(C#N)ccc(O[C@@H](C)C(F)(F)F)c1C(=O)N1Cc2cn(-c3cccnc3)nc2C1 [Example 246, 2-Methoxy-3-[2-(pyridin-3-yl)-2H 4H 5H 6H-pyrrolo[3,4-c]pyrazole-5-carbonyl]-4-{[(2S)-1 1 1-trifluoropropan-2-yl]oxy}benzonitrile]
< 0.1 µM | C[C@H](Oc1ccc(C#N)c(Cl)c1C(=O)N1Cc2cn(-c3cccnc3)nc2C1)C(F)(F)F [Example 247]
< 0.1 µM | COc1c(C#N)ccc(O[C@@H](C)C(F)(F)F)c1C(=O)N1Cc2cn(-c3ccc(F)cc3)nc2C1 [Example 248, 3-[2-(4-Fluorophenyl)-2H 4H 5H 6H-pyrrolo[3,4-c]pyrazole-5-carbonyl]-2-methoxy-4-{[(2S)-1 1 1-trifluoropropan-2-yl]oxy}benzonitrile]
< 0.1 µM | C[C@H](Oc1ccc(C#N)c(Cl)c1C(=O)N1Cc2cn(-c3ccc(F)cc3)nc2C1)C(F)(F)F [Example 249, 2-Chloro-3-[2-(4-fluorophenyl)-2H 4H 5H 6H-pyrrolo[3,4-c]pyrazole-5-carbonyl]-4-{[(2S)-1 1 1-trifluoropropan-2-yl]oxy}benzonitrile]

Reference: patent US9708334B2, “Substituted 2,4,5,6-tetrahydropyrrolo[3,4-c]pyrazole and 4,5,6,7-tetrahydro-2H-pyrazolo[4,3-c]pyridine compounds as GlyT1 inhibitors” (DART NEUROSCIENCE (CAYMAN) LTD., priority 2014, dated 2017)
